Assay: solubility in water
Type: physicochemical
Details: for solubility in water: temperature not stated
Description: The concentrated solution was desalinated in a visking tubing placed in distilled water and the water replaced periodically until no further chloride ions could be detected using […] and the product precipitated by addition of ethanol to give 46 g of the title product (80% yield) having a lambda max at 417 nm and very high solubility in water.
The higher solubility of C1 compared with D1 and D2 means that more C1 can be prepared in a given vessel than for D1 or D2.

solubility in water	Structure (SMILES)	further results
very high	CCN(c1nc(Cl)nc(Nc2ccc(N=Nc3cc4c(S(=O)(=O)O)cc(S(=O)(=O)O)cc4cc3S(=O)(=O)O)c(NC(N)=O)c2)n1)c1cc(S(=O)(=O)O)ccc1C [Example 1]	–
very high	CCN(c1nc(Nc2ccc(N=Nc3cc4c(S(=O)(=O)O)cc(S(=O)(=O)[O-])cc4cc3S(=O)(=O)O)c(NC(N)=O)c2)nc(-[n+]2ccc(C(=O)O)cc2)n1)c1cc(S(=O)(=O)O)ccc1C [Example 2]	–
high	CC(C)N(c1cccc(S(=O)(=O)O)c1)c1nc(Cl)nc(Nc2ccc(N=Nc3cc4c(S(=O)(=O)O)cc(S(=O)(=O)O)cc4cc3S(=O)(=O)O)c(NC(N)=O)c2)n1 [Example 3]	–
–	CC(C)N(c1ccc(S(=O)(=O)O)cc1)c1nc(Cl)nc(Nc2ccc(N=Nc3cc4c(S(=O)(=O)O)cc(S(=O)(=O)O)cc4cc3S(=O)(=O)O)c(NC(N)=O)c2)n1 [Example 4]	solubility in water at 20° C. (20° C.): very high
–	CCN(c1nc(Cl)nc(Nc2cc(NC(C)=O)c(N=Nc3cc(S(=O)(=O)O)c4cccc(S(=O)(=O)O)c4c3)cc2OC)n1)c1cc(S(=O)(=O)O)ccc1C [Example 5]	solubility in water at 25° C. (25° C.): good
